Measurements taken from patent US8026359B2, “Fungicidal heterocyclic amines” (E.I. du Pont de Nemours and Company, priority 2007, dated 2011).

What was measured:
Assay type in all cases: in vivo
[1] = tested on: Erysiphe graminis f. sp. tritici; experiment: Test A: wheat powdery mildew, preventive spray on wheat seedlings; conditions: 200 ppm, 100 = 100% disease control, 0 = no control relative to controls; for pest or weed control at 200 ppm: Blumeria graminis, 192 h, read-out: Test A disease control rating
Text: (§1) General protocol for preparing test suspensions for Tests A-R: The test compounds were first dissolved in acetone in an amount equal to 3% of the final volume and then suspended at the desired concentration (in ppm) in acetone and purified water (50/50 mix) containing 250 ppm of the surfactant Trem® 014 (polyhydric alcohol esters). The resulting test suspensions were then used in tests A-R. In Tests A-M, compounds were sprayed as a 200 ppm test suspension (equivalent to a rate of 500 g/ha) or as a 40 ppm test suspension to the point of runoff on the test plants. In Tests N-R, compounds were sprayed as a 100 g/ha test suspension (equivalent to a rate of 100 ppm) on the test plants at an application volume of 1000 L/ha. The test suspension was sprayed to the point of run-off on wheat seedlings.

Septoria nodorum = experiment: Test C: wheat glume blotch, preventive spray on wheat seedlings; conditions: 200 ppm, 100 = 100% disease control, 0 = no control relative to controls; for pest or weed control at 200 ppm: Parastagonospora nodorum, 216 h, read-out: Test C disease control rating
Text: as §1

Botrytis cinerea = experiment: Test F: tomato Botrytis, preventive spray on tomato seedlings; conditions: 200 ppm, 100 = 100% disease control, 0 = no control relative to controls; for pest or weed control at 200 ppm: Botrytis cinerea, 120 h, read-out: Test F disease control rating
Text: as §1, with “tomato” for “wheat”

[2] = tested on: Puccinia recondita f. sp. tritici; experiment: Test B: wheat leaf rust, preventive spray on wheat seedlings; conditions: 200 ppm, 100 = 100% disease control, 0 = no control relative to controls; for pest or weed control at 200 ppm: Puccinia recondita, 192 h, read-out: Test B disease control rating
Text: as §1

[3] = tested on: Colletotrichum orbiculare; experiment: Test I: cucumber Colletotrichum anthracnose, preventive spray on cucumber seedlings; conditions: 100 = 100% disease control, 0 = no control relative to controls; for Test I disease control rating: 200 ppm; for pest or weed control at 200 ppm: Colletotrichum orbiculare, 144 h, read-out: Test I disease control rating
Text: as §1, with “cucumber” for “wheat”

Septoria tritici = experiment: Test D: wheat leaf blotch, preventive spray on wheat seedlings; conditions: 200 ppm, 100 = 100% disease control, 0 = no control relative to controls; for pest or weed control at 200 ppm: Zymoseptoria tritici, 504 h, read-out: Test D disease control rating
Text: as §1

Fusarium graminearum = experiment: whole plant or invertebrate; conditions: for Test E disease control rating: 200 ppm, 100 = 100% disease control, 0 = no control relative to controls; for pest or weed control at 200 ppm: Fusarium graminearum, in Triticum aestivum, 192 h, read-out: Test E disease control rating

Row | SMILES | Test A disease control rating [1] [%] | Test C disease control rating (Septoria nodorum) [%] | Test F disease control rating (Botrytis cinerea) [%] | Test B disease control rating [2] [%] | Test I disease control rating [3] [%] | Test D disease control rating (Septoria tritici) [%] | Test E disease control rating (Fusarium graminearum) [%] | pest or weed control at 200 ppm [1] [%] | pest or weed control at 200 ppm (Septoria nodorum) [%] | pest or weed control at 200 ppm (Botrytis cinerea) [%] | pest or weed control at 200 ppm [2] [%] | pest or weed control at 200 ppm [3] [%] | pest or weed control at 200 ppm (Septoria tritici) [%] | pest or weed control at 200 ppm (Fusarium graminearum) [%]
1 | CCNc1nccc(-c2ccnc(Nc3cccc(F)c3)c2)n1 [Compound 61] | 0 | 99 | 0 | 96 | 0 | 32 | 0 |  |  |  |  |  |  | 
2 | COCC(C)Nc1nccc(-c2cc(Nc3cccc(F)c3)ncn2)n1 (centres unmarked) [Compound 109, N^6′-(3-fluorophenyl)-N^2-(2-methoxy-1-methylethyl) [4,4′-bipyrimidine]-2,6′-diamine] |  |  |  |  |  |  |  | 0 | 94 | 0 | 96 | 9 | 5 | 0
3 | CC(C)Nc1nccc(-c2ccnc(Nc3cccc(F)c3)c2)n1 [Compound 60] | 97 | 100 | 61 | 95 | 0 | 18 | 0 |  |  |  |  |  |  | 
4 | COc1cccc(C)c1Nc1cc(-c2ccnc(NC3CCOCC3)n2)ccn1 [Compound 88] | 99 | 97 | 0 | 100 | 0 | 0 | 91 |  |  |  |  |  |  | 
5 | Clc1cccc(Nc2cc(-c3ccnc(N[C@H]4CCOC4)n3)ccn2)c1 [Compound 72] | 0 | 95 | 0 | 80 | 0 | 11 | 0 |  |  |  |  |  |  | 
6 | Fc1cccc(Nc2cc(-c3ccnc(NC4CCOC4)n3)ccn2)c1 (centres unmarked) [Compound 74] | 0 | 99 | 48 | 94 | 17 | 72 | 0 |  |  |  |  |  |  | 
7 | COCC(C)Nc1nccc(-c2ccnc(Nc3ccnc(Cl)c3)c2)n1 (centres unmarked) [Compound 54] | 0 | 64 | 85 | 96 | 0 | 35 | 0 |  |  |  |  |  |  | 
8 | COCC(C)Nc1nccc(-c2ccnc(Nc3c(Cl)cccc3Cl)c2)n1 (centres unmarked) [Compound 78] | 39 | 99 | 93 | 99 | 98 | 60 | 0 |  |  |  |  |  |  | 
9 | COCC(C)Nc1nccc(-c2ccnc(Nc3c(C)cc(C)cc3Cl)c2)n1 (centres unmarked) [Compound 87] | 87 | 100 | 96 | 95 | 88 | 49 | 0 |  |  |  |  |  |  | 
10 | COCC(C)Nc1nccc(-c2ccnc(Nc3c(C)cccc3OC)c2)n1 (centres unmarked) [Compound 85] | 56 | 99 | 93 | 94 | 96 | 0 | 0 |  |  |  |  |  |  | 
11 | CCCC(C)Nc1nccc(-c2ccnc(Nc3cccc(F)c3)c2)n1 (centres unmarked) [Compound 59] | 87 | 99 | 57 |  | 0 | 0 | 0 |  |  |  |  |  |  | 
12 | C[C@H](CO)Nc1nccc(-c2ccnc(Nc3cccc(F)c3)c2)n1 [Compound 57] | 0 | 51 | 0 | 95 | 0 | 9 | 0 |  |  |  |  |  |  | 
13 | COCCC(C)Nc1nccc(-c2ccnc(Nc3cccc(F)c3)c2)n1 (centres unmarked) [Compound 84, 4-[2-[(3-fluorophenyl)amino]-4-pyridinyl]-N-(3-methoxy-1-methylpropyl)-2-pyrimidinamine] |  |  |  |  |  |  |  | 28 | 99 | 99 | 91 | 0 | 59 | 0
14 | COCC(C)Nc1nccc(-c2ccnc(Nc3c(F)ccc(F)c3F)c2)n1 (centres unmarked) [Compound 70] | 95 | 99 | 97 | 98 | 98 | 17 | 84 |  |  |  |  |  |  | 
15 | COCC(C)Nc1nccc(-c2ccnc(Nc3ccccc3F)c2)n1 (centres unmarked) [Compound 53] | 88 | 96 | 99 | 98 | 26 | 41 | 0 |  |  |  |  |  |  | 
16 | Fc1cccc(Nc2cc(-c3ccnc(N[C@H]4CCOC4)n3)ccn2)c1 [Compound 71] | 0 | 99 | 77 | 94 | 46 | 25 | 0 |  |  |  |  |  |  | 
17 | Fc1cccc(Nc2ncnc(-c3ccnc(NC4CCOCC4)n3)n2)c1 [Compound 3] | 64 | 100 | 0 | 96 | 94 | 67 | 27 |  |  |  |  |  |  | 
18 | COCC(C)Nc1nccc(-c2ccnc(Nc3cccc(C(=O)OC)c3)c2)n1 (centres unmarked) [Compound 52] | 0 | 90 | 98 | 94 | 0 | 31 | 0 |  |  |  |  |  |  | 
19 | CCNNc1nccc(-c2ccnc(Nc3cccc(F)c3)c2)n1 [Compound 66] | 0 | 99 | 84 | 85 |  | 92 | 64 |  |  |  |  |  |  | 
20 | COC[C@H](C)Nc1nccc(-c2ncnc(Nc3cncc(F)c3)n2)n1 [Compound 35] | 72 | 98 | 91 | 100 |  | 7 | 98 |  |  |  |  |  |  | 
21 | COC[C@@H](C)Nc1nccc(-c2ccnc(Nc3cccc(F)c3)c2)n1 [Compound 68] | 0 | 99 | 93 | 95 |  | 96 | 0 |  |  |  |  |  |  | 
